Test results reported in patent US20250339409A1, “USES OF PAN BET INHIBITORS” (VYNE THERAPEUTICS INC., priority 2021, published 2025).
Marks after values point to notes of the source that are not given here.

Test system: anti collagen antibodies induced arthritis (ACAIA)
Assay: Anti collagen antibodies induced arthritis (ACAIA) in mice, intra-articular treatment: paw thickness, arthritis clinical score, body weight;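 further: mouse arthritis induced by IV anti-collagen mAb on day 0 plus IP LPS on day 4, with body weight, caliper paw thickness and 0-4 paw score tracked against a day 0 baseline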
[1] = 0.01 mg/kg IA (Group 5), Baseline
[2] = 0.01 mg/kg IA (Group 5), Day 10
[3] = 0.01 mg/kg IA (Group 5), Day 12
[4] = 0.1 mg/kg IA (Group 4), Baseline

Cn1cc(-c2cccc(O)c2Oc2ccccc2)c2cc[nH]c2c1=O [BETi1]
Clinical score of treated leg (Avg.) [1]: 0.00 points
Paw thickness Avg. Delta untreated -treated [1]: −0.08 mm
Paw thickness of treated leg (Avg.) [1]: 2.06 mm
Paw thickness of untreated leg (Avg.) [1]: 1.98 mm
Percent change of weight per day (Av) [1]: 100.00%
Δ clinical score untreated -treated, Avg. Delta [1]: 0.00 points
Clinical score of treated leg (Avg.) (0.01 mg/kg IA (Group 5), Day 3): 0.00 points
Paw thickness Avg. Delta untreated -treated (0.01 mg/kg IA (Group 5), Day 3): 0.02 mm
Paw thickness of treated leg (Avg.) (0.01 mg/kg IA (Group 5), Day 3): 2.12 mm
Paw thickness of untreated leg (Avg.) (0.01 mg/kg IA (Group 5), Day 3): 2.14 mm
Percent change of weight per day (Av) (0.01 mg/kg IA (Group 5), Day 3): 99.39%
Δ clinical score untreated -treated, Avg. Delta (0.01 mg/kg IA (Group 5), Day 3): 0.00 points
Clinical score of treated leg (Avg.) (0.01 mg/kg IA (Group 5), Day 4): 0.00 points
Paw thickness Avg. Delta untreated -treated (0.01 mg/kg IA (Group 5), Day 4): 0.00 mm
Paw thickness of treated leg (Avg.) (0.01 mg/kg IA (Group 5), Day 4): 2.18 mm
Paw thickness of untreated leg (Avg.) (0.01 mg/kg IA (Group 5), Day 4): 2.18 mm
Percent change of weight per day (Av) (0.01 mg/kg IA (Group 5), Day 4): 96.62%
Δ clinical score untreated -treated, Avg. Delta (0.01 mg/kg IA (Group 5), Day 4): 0.00 points
Clinical score of treated leg (Avg.) (0.01 mg/kg IA (Group 5), Day 5): 0.00 points
Paw thickness Avg. Delta untreated -treated (0.01 mg/kg IA (Group 5), Day 5): 0.00 mm
Paw thickness of treated leg (Avg.) (0.01 mg/kg IA (Group 5), Day 5): 2.18 mm
Paw thickness of untreated leg (Avg.) (0.01 mg/kg IA (Group 5), Day 5): 2.17 mm
Percent change of weight per day (Av) (0.01 mg/kg IA (Group 5), Day 5): 89.80%
Δ clinical score untreated -treated, Avg. Delta (0.01 mg/kg IA (Group 5), Day 5): 0.00 points
Clinical score of treated leg (Avg.) (0.01 mg/kg IA (Group 5), Day 6): 0.71 points
Paw thickness Avg. Delta untreated -treated (0.01 mg/kg IA (Group 5), Day 6): 0.05 mm
Paw thickness of treated leg (Avg.) (0.01 mg/kg IA (Group 5), Day 6): 2.34 mm
Paw thickness of untreated leg (Avg.) (0.01 mg/kg IA (Group 5), Day 6): 2.39 mm
Percent change of weight per day (Av) (0.01 mg/kg IA (Group 5), Day 6): 88.03%
Δ clinical score untreated -treated, Avg. Delta (0.01 mg/kg IA (Group 5), Day 6): 0.14 points
Clinical score of treated leg (Avg.) (0.01 mg/kg IA (Group 5), Day 7): 1.86 points
Paw thickness Avg. Delta untreated -treated (0.01 mg/kg IA (Group 5), Day 7): 0.02 mm
Paw thickness of treated leg (Avg.) (0.01 mg/kg IA (Group 5), Day 7): 2.60 mm
Paw thickness of untreated leg (Avg.) (0.01 mg/kg IA (Group 5), Day 7): 2.62 mm
Percent change of weight per day (Av) (0.01 mg/kg IA (Group 5), Day 7): 91.87%
Δ clinical score untreated -treated, Avg. Delta (0.01 mg/kg IA (Group 5), Day 7): −0.29 points
Clinical score of treated leg (Avg.) (0.01 mg/kg IA (Group 5), Day 8): 1.86 points
Paw thickness Avg. Delta untreated -treated (0.01 mg/kg IA (Group 5), Day 8): −0.01 mm
Paw thickness of treated leg (Avg.) (0.01 mg/kg IA (Group 5), Day 8): 2.64 mm
Paw thickness of untreated leg (Avg.) (0.01 mg/kg IA (Group 5), Day 8): 2.63 mm
Percent change of weight per day (Av) (0.01 mg/kg IA (Group 5), Day 8): 89.85%
Δ clinical score untreated -treated, Avg. Delta (0.01 mg/kg IA (Group 5), Day 8): −0.14 points
Clinical score of treated leg (Avg.) [2]: 2.14 points
Paw thickness Avg. Delta untreated -treated [2]: 0.05 mm
Paw thickness of treated leg (Avg.) [2]: 2.68 mm
Paw thickness of untreated leg (Avg.) [2]: 2.73 mm
Percent change of weight per day (Av) [2]: 89.71%
Δ clinical score untreated -treated, Avg. Delta [2]: 0.00 points
Clinical score of treated leg (Avg.) [3]: 2.43 points
Paw thickness Avg. Delta untreated -treated [3]: −0.20 mm
Paw thickness of treated leg (Avg.) [3]: 3.01 mm
Paw thickness of untreated leg (Avg.) [3]: 2.80 mm
Percent change of weight per day (Av) [3]: 92.75%
Δ clinical score untreated -treated, Avg. Delta [3]: −1.00 points
Clinical score of treated leg (Avg.) [4]: 0.00 points
Paw thickness Avg. Delta untreated -treated [4]: −0.04 mm
Paw thickness of treated leg (Avg.) [4]: 2.06 mm
Paw thickness of untreated leg (Avg.) [4]: 2.01 mm
Percent change of weight per day (Av) [4]: 100.00%
Δ clinical score untreated -treated, Avg. Delta [4]: 0.00 points
Clinical score of treated leg (Avg.) (0.1 mg/kg IA (Group 4), Day 3): 0.00 points
Paw thickness Avg. Delta untreated -treated (0.1 mg/kg IA (Group 4), Day 3): −0.05 mm
Paw thickness of treated leg (Avg.) (0.1 mg/kg IA (Group 4), Day 3): 2.18 mm
Paw thickness of untreated leg (Avg.) (0.1 mg/kg IA (Group 4), Day 3): 2.14 mm
Percent change of weight per day (Av) (0.1 mg/kg IA (Group 4), Day 3): 101.00%
Δ clinical score untreated -treated, Avg. Delta (0.1 mg/kg IA (Group 4), Day 3): 0.00 points
Clinical score of treated leg (Avg.) (0.1 mg/kg IA (Group 4), Day 4): 0.00 points
Paw thickness Avg. Delta untreated -treated (0.1 mg/kg IA (Group 4), Day 4): 0.04* mm
Paw thickness of treated leg (Avg.) (0.1 mg/kg IA (Group 4), Day 4): 2.17 mm
Paw thickness of untreated leg (Avg.) (0.1 mg/kg IA (Group 4), Day 4): 2.21 mm
Percent change of weight per day (Av) (0.1 mg/kg IA (Group 4), Day 4): 99.30%
Δ clinical score untreated -treated, Avg. Delta (0.1 mg/kg IA (Group 4), Day 4): 0.00 points
Clinical score of treated leg (Avg.) (0.1 mg/kg IA (Group 4), Day 5): 0.00 points
Paw thickness Avg. Delta untreated -treated (0.1 mg/kg IA (Group 4), Day 5): −0.02 mm
Paw thickness of treated leg (Avg.) (0.1 mg/kg IA (Group 4), Day 5): 2.17 mm
Paw thickness of untreated leg (Avg.) (0.1 mg/kg IA (Group 4), Day 5): 2.15 mm
Percent change of weight per day (Av) (0.1 mg/kg IA (Group 4), Day 5): 91.11%
Δ clinical score untreated -treated, Avg. Delta (0.1 mg/kg IA (Group 4), Day 5): 0.00 points
Clinical score of treated leg (Avg.) (0.1 mg/kg IA (Group 4), Day 6): 1.57** points
Paw thickness Avg. Delta untreated -treated (0.1 mg/kg IA (Group 4), Day 6): 0.06 mm
Paw thickness of treated leg (Avg.) (0.1 mg/kg IA (Group 4), Day 6): 2.57* mm
Paw thickness of untreated leg (Avg.) (0.1 mg/kg IA (Group 4), Day 6): 2.63 mm
Percent change of weight per day (Av) (0.1 mg/kg IA (Group 4), Day 6): 88.63%
Δ clinical score untreated -treated, Avg. Delta (0.1 mg/kg IA (Group 4), Day 6): −0.43 points
Clinical score of treated leg (Avg.) (0.1 mg/kg IA (Group 4), Day 7): 2.00 points
Paw thickness Avg. Delta untreated -treated (0.1 mg/kg IA (Group 4), Day 7): 0.05 mm
